Measurements: US20010014454A1, “NOVEL METAL COMPLEXES” (priority 2000, published 2001)

T1: G-CSF receptor (Mus musculus, UniProt P40223)
T1 construct: they express endogenous G-CSF receptors; endogenous in cells; host or cells: NFS60 murine myeloid cells with a G-CSF-responsive luciferase reporter
T1 sequence (P40223 26-837): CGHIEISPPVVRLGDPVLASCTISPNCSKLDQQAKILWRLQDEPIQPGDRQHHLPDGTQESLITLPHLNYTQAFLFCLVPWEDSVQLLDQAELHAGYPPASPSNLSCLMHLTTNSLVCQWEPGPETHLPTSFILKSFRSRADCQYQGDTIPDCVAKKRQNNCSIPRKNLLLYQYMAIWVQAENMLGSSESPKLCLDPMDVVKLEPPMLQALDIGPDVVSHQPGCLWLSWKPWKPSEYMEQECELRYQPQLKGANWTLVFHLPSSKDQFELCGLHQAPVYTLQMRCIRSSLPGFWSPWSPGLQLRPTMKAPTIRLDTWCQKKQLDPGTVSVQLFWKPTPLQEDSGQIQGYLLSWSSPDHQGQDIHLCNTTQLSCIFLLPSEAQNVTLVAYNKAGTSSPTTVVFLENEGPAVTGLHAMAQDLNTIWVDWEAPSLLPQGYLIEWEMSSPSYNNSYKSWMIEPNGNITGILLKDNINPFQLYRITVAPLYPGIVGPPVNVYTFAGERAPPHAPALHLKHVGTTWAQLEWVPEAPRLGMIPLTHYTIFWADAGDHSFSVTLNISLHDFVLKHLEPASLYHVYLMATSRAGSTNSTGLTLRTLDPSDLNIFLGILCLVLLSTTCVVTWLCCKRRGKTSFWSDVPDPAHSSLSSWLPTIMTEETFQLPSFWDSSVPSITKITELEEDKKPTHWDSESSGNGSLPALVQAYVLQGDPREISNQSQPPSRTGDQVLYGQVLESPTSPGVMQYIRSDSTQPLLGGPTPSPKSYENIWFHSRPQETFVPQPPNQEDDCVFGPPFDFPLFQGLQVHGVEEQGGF

B1: recombinant G-CSF: the natural ligand (i.e. G-CSF or recombinant G-CSF) of the G-CSF receptor (protein, UniProt P09919 31-207, looked up)
Granulocyte …: TPLGPASSLPQSFLLKCLEQVRKIQGDGAALQEKLVSECATYKLCHPEELVLLGHSLGIPWAPLSSCPSQALQLAGCLSQLHSGLFLYQGLLQALEGISPELGPTLDTLQLDVADFATTIWQQMEELGMAPALQPTQGAMPAFASAFQRRAGGVLVASHLQSFLEVSYRVLRHLAQP

Experiments:
[1] = tested on: peripheral blood neutrophil and monocyte count; test: In vivo evaluation of peripheral blood neutrophil and monocyte count in the mouse
Procedure: Compounds of this invention are also tested for activity in the following assays: CFU-G assay (an example of which is described in King A G, Talmadge J., Badger A M, Pelus L M. Regulation of colony stimulating activity production from bone marrow stromal cells by the hematoregulatory peptide, HP-5. Exp. Hematol. 20:223-228, 1992) and in vivo evaluation of peripheral blood neutrophil and monocyte count in the mouse (an example of which is described in Pelus, L. M.; King, A. G.; Broxmeyer, H. E.; DeMarsh, P. L.; Petteway, S. R.; Bhatnagar, P. K., In vivo modulation of hematopoiesis by a novel hematoregulatory peptide Exp-Hematol. 1994 22(3): 239-47). In order to confirm the requirement for zinc(II) chelation, the above CFU-G assay was also conducted in the presence of EDTA.

[2] = target: G-CSF/Fc fusion protein; test: Isothermal titration microcalorimetry; format: binding; settings: in the presence of zinc
Procedure: Zinc-mediated affinity of compounds from this invention for dimeric cell-surface receptors (specifically the G-CSF receptor) was measured by isothermal titration microcalorimetry experiments. Titration microcalorimetry detects binding as heat originating from the intrinsic bond forming enthalpy change. In this assay, the compounds were titrated first against zinc(II) alone. In a separate experiment, the compounds were then assayed in the presence of zinc and a dimeric cell-surface receptor/Fc fusion protein (a G-CSF/Fc fusion protein), which contained the extracellular domain of the receptor presented in a dimeric form due to the Fc component.

[3] = target: T1, G-CSF receptor; test: Luciferase assay and EDTA (NFS60 cells, with or without metal chlorides); format: cell-based, murine; settings: for agonist activity in the presence of EDTA: in the presence of EDTA (FIGS. 3 and 4)
Procedure: FIG. 3 is an analysis of the effect of ethylenediaminetetraacetic acid (as used herein—EDTA) on the activity of Compound 1a (from Example 1) in NFS60 cells. Shown are luciferase response curves of Compound 1a at the indicated concentrations and in the presence of various concentrations of EDTA. […] The media in this assay contained a small amount (1-5 uM) of zinc(II).
FIGS. 7 and 8 show an analysis of the effect of metal chlorides on the EDTA depleted activity of Compound 1a on NFS60 cells. Shown are luciferase response curves as effected by the indicated metal chlorides. […] None of the other metals tested could overcome the inhibitory effect of EDTA.
In order to determine the requisiteness of zinc chelation of small organic molecules to agonist activity at dimeric cell-surface receptors, the above luciferase assay was performed on the G-CSF receptor in the presence of EDTA. EDTA is a strong metal chelator and had as it only effect, the removal of zinc from the ligand-receptor interaction.

[4] = target: T1, G-CSF receptor; test: Luciferase reporter gene assay in G-CSF-responsive NFS60 cells; format: cell-based, murine; settings: absence of zinc
Procedure: Activity of compound 1a is below the threshold of 150% over background. The study was performed as a Luciferase assay configured on the G-CSF-responsive NFS60 cell line as described in Tian et al., Science 281, 257-259 (1998). The experiments shown in FIGS. 2-8 used the same NFS60 cell line.
Compounds of the present invention are tested for potency as agonist of a dimeric cell-surface receptor in a Luciferase reporter gene assay such as described in Tian et al., Science 281. 257-259 (1998). For example, for G-CSF NFS60 cells (Holmes, et al., Proc. Natl. Acad. Sci. USA 82: 6687-6691 (1985)) are selected because they express endogenous G-CSF receptors closely matching the pattern of STAT (signal transducers and activators of transcription) activation observed in primary murine and human bone marrow cells.

Molecule	peripheral blood neutrophil and monocyte count [1]	affinity for the fusion protein construct [2]	effect of metal chlorides on the EDTA depleted luciferase activity ([3]; Compound 1a, 50 micromolar EDTA, plus metal chlorides)	effect of EDTA on luciferase activity ([3]; EDTA at 1.2 millimolar, media contained 1-5 uM zinc(II))	agonist activity in the presence of EDTA [3]	luciferase activity over background [4] [%]	effect of EDTA on luciferase activity ([3]; EDTA at both 1.2 and 5 millimolar)
c1ccc(C23NC(=Nc4nc5ccccc5[nH]4)NC2(c2ccccn2)NC(=Nc2nc4ccccc4[nH]2)N3)nc1 (stereo not shown) [Compound 1a, 2,5-Bis[2-benzimidazolylimino]-3a,6a-bis(2-pyridyl)-1,2,3,3a,4,5,6,6a-octahydroimidazo[4,5-d]imidazole]	elevation	submicromolar	Only zinc (II) at concentrations 0.5-10 micromolar can overcome the inhibition	antagonized	abrogated	< 150	
Cc1ccc2nc(N=C3NC4(c5ccccn5)NC(=Nc5nc6ccccc6[nH]5)NC4(c4ccccn4)N3)[nH]c2c1.O=C(O)C(F)(F)F.O=C(O)C(F)(F)F (stereo not shown) [Compound 3a, 5-(2-benzimidazolylimino)-2-[(5-methyl-2-benzimidazolyl)imino]-3a,6a-bis(2-pyridyl)-1,2,3,3a,4,5,6,6a-octahydroimidazo[4,5-d]imidazole bis(trifluoroacetate) salt]	elevation	submicromolar					
B1					not mediated by metal ions		little effect
